In ChEMBL document CHEMBL4382242, “Novel racemosin B derivatives as new therapeutic agents for aggressive breast cancer” (Bioorg Med Chem, 2018):
pIC50: −log10 of the molar value. Active and inactive are the calls of the source. The calls are words filed in the database; no cut-off is given here.

Assays:
[1] = system: MCF7; experiment: Growth inhibition of human MCF7 cells after 72 hrs by MTT assay; assay type: functional, cell-based; details: MCF7, 72 h
[2] = system: MDA-MB-231; experiment: Growth inhibition of human MDA-MB-231 cells after 72 hrs by MTT assay; assay type: functional, cell-based; details: MDA-MB-231, 72 h
[3] = system: K562; experiment: Growth inhibition of human K562 cells after 72 hrs by MTT assay; assay type: functional, cell-based; details: K562, 72 h
[4] = system: MDA-MB-231; experiment: Induction of apoptosis in human MDA-MB-231 cells assessed as necrotic cells at 5 uM after 48 hrs by Annexin V-FITC/propidium iodide staining based flow cytometry (reference value: 0.7%); assay type: functional
[5] = system: MDA-MB-231; experiment: Inhibition of autophagy in human MDA-MB-231 cells assessed as increase in p62 protein expression at 5 uM after 16 hrs by Western blot analysis; assay type: functional, cell-based
[6] = system: MDA-MB-231; experiment: Induction of apoptosis in human MDA-MB-231 cells assessed as early apoptotic cells at 5 uM after 48 hrs by Annexin V-FITC/propidium iodide staining based flow cytometry (reference value: 5.3%); assay type: functional
[7] = system: MDA-MB-231; experiment: Cell cycle arrest in human MDA-MB-231 cells assessed as accumulation at G2/M phase at 5 uM after 48 hrs by propidium iodide staining based flow cytometry (reference value: 17.79%); assay type: functional
[8] = system: MDA-MB-231; experiment: Induction of apoptosis in human MDA-MB-231 cells assessed as increase in Bax protein expression at 5 uM after 16 hrs by Western blot analysis; assay type: functional, cell-based
[9] = Growth inhibition of human WM9 cells after 72 hrs by MTT assay; assay type: functional; details: WM9, 72 h
[10] = system: MDA-MB-231; experiment: Induction of apoptosis in human MDA-MB-231 cells assessed as decrease in Bcl2 protein expression at 5 uM after 16 hrs by Western blot analysis; assay type: functional, cell-based
[11] = system: MDA-MB-231; experiment: Induction of apoptosis in human MDA-MB-231 cells assessed as live cells at 5 uM after 48 hrs by Annexin V-FITC/propidium iodide staining based flow cytometry (reference value: 87.6%); assay type: functional
[12] = system: MDA-MB-231; experiment: Cell cycle arrest in human MDA-MB-231 cells assessed as accumulation at G1 phase at 5 uM after 24 hrs by propidium iodide staining based flow cytometry (reference value: 47.9%); assay type: functional
[13] = system: MDA-MB-231; experiment: Induction of apoptosis in human MDA-MB-231 cells assessed as late apoptotic cells at 5 uM after 48 hrs by Annexin V-FITC/propidium iodide staining based flow cytometry (reference value: 6.5%); assay type: functional
[14] = system: MDA-MB-231; experiment: Induction of morphological changes in human MDA-MB-231 cells assessed as large vacuole formation at 5 uM after 24 hrs; assay type: functional, cell-based
[15] = system: MDA-MB-231; experiment: Induction of apoptosis in human MDA-MB-231 cells assessed as early apoptotic cells at 5 uM after 24 hrs by Annexin V-FITC/propidium iodide staining based flow cytometry (reference value: 3.7%); assay type: functional
[16] = target: Serine/threonine-protein kinase mTOR (Homo sapiens) (UniProt P42345); experiment: Inhibition of mTOR phosphorylation in human MDA-MB-231 cells at 5 uM after 16 hrs by Western blot analysis; assay type: cell-based
[17] = system: 4T1; experiment: Growth inhibition of mouse 4T1 cells after 72 hrs by MTT assay; assay type: functional, cell-based; details: 4T1, 72 h
[18] = system: MDA-MB-231; experiment: Induction of apoptosis in human MDA-MB-231 cells assessed as necrotic cells at 5 uM after 24 hrs by Annexin V-FITC/propidium iodide staining based flow cytometry (reference value: 0.7%); assay type: functional
[19] = system: MDA-MB-231; experiment: Induction of apoptosis in human MDA-MB-231 cells assessed as increase in Cyclin-B1 protein expression at 5 uM after 16 hrs by Western blot analysis; assay type: functional, cell-based
[20] = system: HEL; experiment: Growth inhibition of HEL cells after 72 hrs by MTT assay; assay type: functional, cell-based; details: Homo sapiens
[21] = system: MDA-MB-231; experiment: Induction of apoptosis in human MDA-MB-231 cells assessed as late apoptotic cells at 5 uM after 24 hrs by Annexin V-FITC/propidium iodide staining based flow cytometry (reference value: 4.8%); assay type: functional
[22] = system: MDA-MB-231; experiment: Cell cycle arrest in human MDA-MB-231 cells assessed as accumulation at S phase at 5 uM after 48 hrs by propidium iodide staining based flow cytometry (reference value: 31.71%); assay type: functional
[23] = Growth inhibition of human WM35 cells after 72 hrs by MTT assay; assay type: functional; details: WM35, 72 h
[24] = system: MDA-MB-231; experiment: Cell cycle arrest in human MDA-MB-231 cells assessed as accumulation at S phase at 5 uM after 24 hrs by propidium iodide staining based flow cytometry (reference value: 29.76%); assay type: functional
[25] = system: MDA-MB-231; experiment: Cell cycle arrest in human MDA-MB-231 cells assessed as accumulation at G1 phase at 5 uM after 48 hrs by propidium iodide staining based flow cytometry (reference value: 3.19%); assay type: functional
[26] = system: MDA-MB-231; experiment: Induction of apoptosis in human MDA-MB-231 cells assessed as live cells at 5 uM after 24 hrs by Annexin V-FITC/propidium iodide staining based flow cytometry (reference value: 90.8%); assay type: functional
[27] = system: MDA-MB-231; experiment: Growth inhibition of human MDA-MB-231 cells at 1 to 5 uM after 72 hrs by MTT assay; assay type: functional, cell-based
[28] = system: MDA-MB-231; experiment: Inhibition of autophagy in human MDA-MB-231 cells assessed as LC3-2 accumulation at 5 uM after 16 hrs by DAPI staining based immunofluorescence assay; assay type: functional, cell-based
[29] = system: MDA-MB-231; experiment: Cell cycle arrest in human MDA-MB-231 cells assessed as accumulation at G2/M phase at 5 uM after 24 hrs by propidium iodide staining based flow cytometry (reference value: 18.5%); assay type: functional
[30] = system: MDA-MB-231; experiment: Induction of morphological changes in human MDA-MB-231 cells assessed as cell detachment at 5 uM after 24 hrs; assay type: functional, cell-based

## COC(=O)c1cc2c3ccccc3[nH]c2c2c1[nH]c1ccccc12
[1]
  pIC50: < 4.40
[2]
  pIC50: < 4.40

## CN(C)CCCNC(=O)c1cc2c3ccccc3[nH]c2c2c1[nH]c1ccccc12
[1]
  pIC50: 5.43
[2]
  pIC50: 5.35

## O=C(NCCN1CCCC1)c1cc2c3ccccc3[nH]c2c2c1[nH]c1ccc(Br)cc12
[1]
  pIC50: 5.89
[2]
  pIC50: 5.74

## CN1CCC(NC(=O)c2cc3c4ccccc4[nH]c3c3c2[nH]c2ccccc23)CC1
[1]
  pIC50: 5.41
[2]
  pIC50: 5.79

## CN(C)c1ccc(NC(=O)c2cc3c4ccccc4[nH]c3c3c2[nH]c2ccccc23)cc1
[1]
  pIC50: 4.79
[2]
  pIC50: 5.11

## O=C(NCCN1CCCC1)c1cc2c3ccccc3[nH]c2c2c1[nH]c1ccccc12
[1]
  pIC50: 5.51
[2]
  pIC50: 5.85

## CCN1CCCC1CNC(=O)c1cc2c3ccccc3[nH]c2c2c1[nH]c1ccccc12 (centres undefined)
[1]
  pIC50: 5.23
[2]
  pIC50: 5.45

## O=C(NCc1cccnc1)c1cc2c3ccccc3[nH]c2c2c1[nH]c1ccccc12
[1]
  pIC50: 5.01
[2]
  pIC50: 5.22

## O=C(NCCc1c[nH]cn1)c1cc2c3ccccc3[nH]c2c2c1[nH]c1ccccc12
[1]
  pIC50: 5.31
[2]
  pIC50: 5.38

## CN(C)CCNC(=O)c1cc2c3ccccc3[nH]c2c2c1[nH]c1cc(Cl)ccc12
[1]
  pIC50: 5.10
[2]
  pIC50: 5.35

## CC(C)N(CCNC(=O)c1cc2c3ccccc3[nH]c2c2c1[nH]c1ccccc12)C(C)C
[1]
  pIC50: 5.51
[2]
  pIC50: 5.76

## CN1CCN(CCNC(=O)c2cc3c4ccccc4[nH]c3c3c2[nH]c2ccccc23)CC1
[1]
  pIC50: 5.27
[2]
  pIC50: 5.68

## COC(=O)c1cc2c3ccccc3[nH]c2c2c1[nH]c1ccc(Br)cc12
[1]
  pIC50: < 4.40
[2]
  pIC50: < 4.40

## COc1ccc2[nH]c3c(C(=O)NCCN(C)C)cc4c5ccccc5[nH]c4c3c2c1
[1]
  pIC50: 5.29
[2]
  pIC50: 5.56

## O=C(NCCN1CCCCC1)c1cc2c3ccccc3[nH]c2c2c1[nH]c1ccccc12
[1]
  pIC50: 5.49
[2]
  pIC50: 5.76

## CN(C)CCNC(=O)c1cc2c3ccccc3[nH]c2c2c1[nH]c1ccc(Br)cc12
[3]
  pIC50: 5.81
[4]
  Activity: 9.6%
[5]
  inhibition: Active
[6]
  Activity: 14.2%
[7]
  Activity: 29.98%
[8]
  Activity: inactive
[9]
  pIC50: 5.61
[1]
  pIC50: 5.70
[10]
  Activity: inactive
[2]
  pIC50: 5.97
[11]
  Activity: 70.8%
[12]
  Activity: 47.46%
[13]
  Activity: 5.5%
[14]
  Activity: Active
[15]
  Activity: 10.8%
[16]
  inhibition: Active
[17]
  pIC50: 5.56
[18]
  Activity: 2%
[19]
  Activity: inactive
[20]
  pIC50: 5.44
[21]
  Activity: 5%
[22]
  Activity: 21.38%
[23]
  pIC50: 5.42
[24]
  Activity: 29.31%
[25]
  Activity: 48.65%
[26]
  Activity: 82.2%
[27]
  growth inhibition (GI): Active
[28]
  inhibition: Active
[29]
  Activity: 22.91%

## O=C(NCCN1CCCC1)c1cc2c3ccccc3[nH]c2c2c1[nH]c1cc(Cl)ccc12
[1]
  pIC50: 5.08
[2]
  pIC50: 5.24

## CN(C)c1ccccc1NC(=O)c1cc2c3ccccc3[nH]c2c2c1[nH]c1ccccc12
[1]
  pIC50: 4.97
[2]
  pIC50: 5.11

## O=C(NCc1ccncc1)c1cc2c3ccccc3[nH]c2c2c1[nH]c1ccccc12
[1]
  pIC50: 5.09
[2]
  pIC50: 5.25

## CN(C)CCNC(=O)c1cc2c3ccccc3[nH]c2c2c1[nH]c1ccccc12
[1]
  pIC50: 5.47
[2]
  pIC50: 5.84

## COc1cc([C@@H]2c3cc4c(cc3[C@@H](O[C@@H]3O[C@@H]5CO[C@@H](C)O[C@H]5[C@H](O)[C@H]3O)[C@H]3COC(=O)[C@H]23)OCO4)cc(OC)c1O [ETOPOSIDE]
[3]
  pIC50: 5.03
[4]
  Activity: 10.1%
[5]
  inhibition: inactive
[6]
  Activity: 5.5%
[7]
  Activity: 70.43%
[8]
  Activity: Active
[9]
  pIC50: 5.76
[1]
  pIC50: < 5.00
[10]
  Activity: Active
[30]
  Activity: Active
[2]
  pIC50: < 5.00
[11]
  Activity: 75.5%
[12]
  Activity: 7.59%
[13]
  Activity: 8.8%
[15]
  Activity: 4.6%
[16]
  inhibition: inactive
[17]
  pIC50: < 5.00
[18]
  Activity: 0.7%
[19]
  Activity: Active
[20]
  pIC50: 6.04
[21]
  Activity: 4%
[22]
  Activity: 15.48%
[23]
  pIC50: 6.40
[24]
  Activity: 19.24%
[25]
  Activity: 8.57%
[26]
  Activity: 90.7%
[27]
  growth inhibition (GI): Active
[28]
  inhibition: inactive
[29]
  Activity: 63.98%

## COC(=O)c1cc2c3ccccc3[nH]c2c2c1[nH]c1ccc(OC)cc12
[1]
  pIC50: < 4.40
[2]
  pIC50: < 4.40

## CCN(CC)CCNC(=O)c1cc2c3ccccc3[nH]c2c2c1[nH]c1ccccc12
[1]
  pIC50: 5.62
[2]
  pIC50: 5.77

## COc1cccc2c1C(=O)c1c(O)c3c(c(O)c1C2=O)C[C@@](O)(C(=O)CO)C[C@@H]3O[C@H]1C[C@H](N)[C@H](O)[C@H](C)O1 [DOXORUBICIN]
[1]
  pIC50: 6.38
[2]
  pIC50: 6.60

## O=C(NCCNCCO)c1cc2c3ccccc3[nH]c2c2c1[nH]c1ccccc12
[1]
  pIC50: 5.31
[2]
  pIC50: 5.69

## O=C(NCc1ccccn1)c1cc2c3ccccc3[nH]c2c2c1[nH]c1ccccc12
[1]
  pIC50: 4.64
[2]
  pIC50: 5.10

## CN(C)CCN(C)C(=O)c1cc2c3ccccc3[nH]c2c2c1[nH]c1ccccc12
[1]
  pIC50: 5.20
[2]
  pIC50: 5.53

## COc1ccc2[nH]c3c(C(=O)NCCN4CCCC4)cc4c5ccccc5[nH]c4c3c2c1
[1]
  pIC50: 5.25
[2]
  pIC50: 5.55

## COC(=O)c1cc2c3ccccc3[nH]c2c2c1[nH]c1cc(Cl)ccc12
[1]
  pIC50: < 4.40
[2]
  pIC50: < 4.40

## O=C(NCCN1CCOCC1)c1cc2c3ccccc3[nH]c2c2c1[nH]c1ccccc12
[1]
  pIC50: 5.11
[2]
  pIC50: 5.36
